US20210386709A1, “COMPOSITIONS AND METHODS FOR SUPPRESSING MSUT2” (United States Government As Represented By The Department …, priority 2020, published 2021)

Assays:
[1] = system: HEK-293 cells
Description: Cell culture and cytotoxicity screen. […] Cell viability was assessed as using Promega Cell Titer Glo (Promega G7570) per manufacturer protocol. Briefly, HEK-293 cells were grown to 70% confluence in a 96 well plate were treated with indicated concentrations of compounds and incubated for 72 hours at 37° C. Plates were read for luminescence on Perkin Elmer Enspire Alpha.
Cell viability was assessed. Briefly, HEK-293 cells grown to 70% confluence in a 96 well dish were treated with varying concentrations of compound (final concentration of 2% DMSO) and incubated for 72 hours. Next, Promega Cell Titer Glo assay was used to assess viability per manufacturer instructions (Promega G7570).

[2] = target: T1, GST-MSUT2 (Homo sapiens, UniProt Q6PJT7); test: Alpha Screen assay of biotinylated poly(A) RNA:GST-MSUT2 binding; conditions: orthogonal dose-response validation
T1 construct: Targeted construct consisted of the c-terminal end (dark blue and amino acids 601-736) of MSUT2; made in house; host or cells: E. coli BL21 (DE3)
T1 sequence (Q6PJT7 601-736): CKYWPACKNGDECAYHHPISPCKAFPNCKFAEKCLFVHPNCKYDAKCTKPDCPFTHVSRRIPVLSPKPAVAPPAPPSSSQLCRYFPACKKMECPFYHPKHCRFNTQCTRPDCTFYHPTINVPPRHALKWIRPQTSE
Description: Alpha Screen Assay. Samples were set up in 384 well Perkin Elmer white opaque-bottom plates (PE06). A total reaction volume of […] was plated in 384 format using a CyBio Well Vario (6 μL of donor beads (10 μg/mL), 3 μL biotinylated RNA (250 nM), 3 μL GST-MSUT2 protein (250 nM) per well). 50 nL of compounds were transferred to wells via CyBio Vario equipped with Pin Tool. This mixture was incubated at room temperature for 30 minutes away from light. Next 3 μL of acceptor beads (1.25 μg/mL) was added. Plates were incubated at room temperature away from light for 60 minutes and subsequently read on a Perkin Elmer EnVision multimode microplate reader equipped with stackers using a standard 384-well Alpha Assay software protocol.
Results. Alpha Screen design and underlying principle. Alpha Screen technology relies on donor beads, coated with a hydrogel excitable by 680 nm, brought within close proximity to an acceptor bead leading to light emission and detection. In this assay, streptavidin coated donor beads tightly bind to biotinylated-poly(A) RNA while the glutathione-coated acceptor bead binds to GST-tagged MSUT2 protein. […] When this interaction is blocked by an inhibitor, the proximity threshold for donor and acceptor beads is not met, singlet oxygen transference cannot occur, and light is not emitted by the acceptor bead (FIG. 1a).
Identification and validation of MSUT2 inhibitory compounds from NIHCC library. The single-point primary screen was conducted in duplicate and utilized the FP assay conditions determined herein (e.g., 125 nM MSUT2 RNABP and 10 nM FAM-RNA probe) with 10 μM library compounds added in a 96-well format. […] Compound specificity was empirically tested by counter screening against PABPN1, a regulator of the length of mRNA poly(A) tails (Apponi, L. H. et al. Hum Mol Genet 19, 1058-1065, (2010); and Benoit, B. et al. Dev Cell 9, 511-522, (2005)). IC50 of each of the previous 8 compounds was determined for PABPN1 using fluorescence polarization (FIG. 11), and a specificity ratio determined (Table 3). An Alpha Screen (AS) assay was developed as an orthogonal screen. Briefly, in this screen, biotinylated RNA binds streptavidin-coated donor beads, while GST-MSUT2 ZF binds glutathione-coated acceptor beads. […] Toxicity of these compounds in a HEK cell model was determined using a standard Promega Cell Titer Glo assay.
Alpha Screen Assay. […] The plate was then incubated again at room temperature away from light for 60 minutes and subsequently read on a Perkin Elmer EnSight multimode microplate reader using a standard 96-well Alpha Assay protocol.

[3] = in vivo; cited from earlier work
[4] = system: poly(A); conditions: cited from earlier work
[5] = target: T2, MSUT2 ZF (Homo sapiens, UniProt Q6PJT7); test: Fluorescence polarization assay of FAM-poly(A) RNA:MSUT2 ZF binding
T2 construct: Targeted construct consisted of the c-terminal end (dark blue and amino acids 601-736) of MSUT2; made in house; host or cells: E. coli BL21 (DE3)
T2 sequence (Q6PJT7 601-736): T1 sequence (Q6PJT7 601-736)
Description: Fluorescence Polarization Assay. […] 2 μL of compound was transferred for a final concentration of 10 μM. […] Fluorescence polarization was calculated by first subtracting background from a buffer-only control well and then using the equation
Results and Discussion. A high-throughput fluorescence polarization assay for inhibition of poly(A):MSUT2 RNA interaction. […] In order to screen potential inhibitors of MSUT2 RBP and RNA by FP, fluorescent FAM (fluorescein amidite)-labeled poly(A)15 RNA (FAM-RNA) and recombinant MSUT2 ZF (zinc finger) protein expressing constructs were generated (FIG. 7a). […] Inhibition of the interaction results in unbound FAM-RNA tumbling at a relatively rapid rate and emitting non-polarized light (FIG. 7b).
To determine the concentrations of both MSUT2 ZF protein and FAM-RNA probe useful in the methods described herein, a two dimensional titration of protein and RNA concentrations in 96-well format was performed. […] Next, the binding constant between MSUT2 ZF and FAM-RNA was determined by holding FAM-RNA constant at 10 nM while increasing MSUT2 ZF concentration.
(§1) Identification and validation of MSUT2 inhibitory compounds from NIHCC library. […] IC50 of each of the previous 8 compounds was determined for PABPN1 using fluorescence polarization (FIG. 11), and a specificity ratio determined (Table 3). An Alpha Screen (AS) assay was developed as an orthogonal screen. Briefly, in this screen, biotinylated RNA binds streptavidin-coated donor beads, while GST-MSUT2 ZF binds glutathione-coated acceptor beads. When donor beads and acceptor beads are brought within close proximity of one another, laser excitation leads to fluorophore emission of the acceptor bead via excited singlet oxygen activating chemiluminescers in the acceptor beads. […] Toxicity of these compounds in a HEK cell model was determined using a standard Promega Cell Titer Glo assay.
(§2) Fluorescence Polarization Assay. […] of stock compound was transferred yielding 10 μM final concentration. […] Fluorescence polarization was calculated by first subtracting background from a buffer-only control well and then using the equation

[6] = target: T3, PABPN1 (Homo sapiens, UniProt Q86U42); test: PABPN1 fluorescence polarization counter screen; assay type: binding
T3 construct: made in house; host or cells: E. coli BL21 (DE3)
T3 sequence (Q86U42 1-306): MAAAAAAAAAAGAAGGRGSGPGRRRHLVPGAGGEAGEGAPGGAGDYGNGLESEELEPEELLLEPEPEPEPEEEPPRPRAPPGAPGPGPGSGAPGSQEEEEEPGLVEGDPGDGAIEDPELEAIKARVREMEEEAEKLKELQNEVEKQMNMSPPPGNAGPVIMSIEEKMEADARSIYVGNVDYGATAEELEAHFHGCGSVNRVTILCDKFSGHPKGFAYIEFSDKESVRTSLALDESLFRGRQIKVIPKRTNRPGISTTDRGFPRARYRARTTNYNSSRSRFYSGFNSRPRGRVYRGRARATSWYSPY
Description: A drug repurposing strategy: screening of the NIH Clinical Collection compound library. […] The plan to find suitable lead compounds for drug repurposing began with a screen of the NIH Clinical Collection (NIHCC) library. The NIHCC consists of a diverse array of 700 compounds with historical pharmacological use and well-studied safety profiles. […] An orthogonal poly(A):MSUT2 binding assay allowed the ruling out of assay interference while selectivity against MSUT2 over PABPN1 was determined by a parallel FP assay with PABPN1 as the RBP. […] Thus, the goal was to eliminate compounds interfering with both PABN1 and MSUT2 and focus on compounds truly specific for poly(A):MSUT2 binding.
as §1, §2

[7] = target: 3′,5′-cyclic phosphodiesterase; conditions: read-out: Ki (nM) for Known Target; cited from earlier work
[8] = system: rat model of chronic cerebral hypoperfusion; conditions: cited from earlier work
[9] = system: elderly patients; conditions: 10 year study of 20,215 elderly patients; cited from earlier work

In the case of `O=S(=O)(O)c1cc(N=C=S)ccc1C=Cc1ccc(N=C=S)cc1S(=O)(=O)O` [4,4-diisothiocyanostilbene-2,2′-sulfonic acid], the “toxicity (effect on cell viability)” value [1] is reported as “relatively non-toxic at the doses tested”.
For `CC(C)/N=c1\cc2n(-c3ccc(Cl)cc3)c3ccccc3nc-2cc1Nc1ccc(Cl)cc1` [Clofazimine], the “inhibition activity by Alpha Screen (AS)” value [2] is given as “dose-dependent inhibition activity”, the “crossing of the blood brain barrier” value [3] is given as “unable to cross the blood brain barrier” and the “interaction with poly(A)” value [4] is given as “little interaction”. The Ki ([5]; calculated by Cheng Prusof equation Ki=(IC50)/[(L/Kd)+1], FP dose response, read-out: Ki (nm) for MSUT2) was 978 nM, the IC50 ([5]; read-out: IC50MSUT2) was 990 nM and the IC50 ([6]; fluorescence polarization counter screen, unit inferred, read-out: IC50PABPN1) was 50600 nM. The PABPN1/MSUT2 specificity ratio ([6]; ratio of FP IC50s) was 51.07.
In the case of `OCCN(CCO)c1nc(N2CCCCC2)c2nc(N(CCO)CCO)nc(N3CCCCC3)c2n1` [Dipyridamole], the “Ki (nm) for MSUT2” value ([5]; calculated by Cheng Prusof equation Ki=(IC50)/[(L/Kd)+1], FP dose response) is given as “failed DR” and the Ki [7] is given as 1000 nM.
In the case of `CNCC[C@H](Oc1cccc2ccccc12)c1cccs1` [Duloxetine], the “inhibition activity by Alpha Screen (AS)” value [2] is given as “dose-dependent inhibition activity”, the IC50PABPN1 ([6]; fluorescence polarization counter screen, unit not given) is given as “None” and the “neuronal loss in the hippocampus” value [8] is given as “attenuated neuronal loss in the hippocampus”. For the same compound, the risk of dementia [9] was “associated with reduced risk of dementia”.
